Entries after “also recorded” stand apart in the source; their conditions may differ. Like-named read-outs stand apart in the source and are kept apart here. Where a SMILES comes first, the peptide text is derived from it. The star is where a group is joined. Cbz = O=C(OCc1ccccc1)*
What was measured:
[1] = tested on: HCT116 isogenic subline clone #10 (BaxΔ2-positive); format: cell-based, human; conditions: Table 5 screening
Experimental: Colon cancer cell line HCT116 was obtained from American Type Culture Collection. The cell line was tested and authenticated by Genetica (Cincinnati. Ohio) before the experiments. Both HCT116 and Bax^−/− mouse embryonic fibroblasts (MEFs) cells were cultured in DMEM supplemented with 10% FBS. To isolate single cell population from HCT116 cells, cells were treated with 500 μM Indomethacin for 72 h to enrich Bax G7 population. Single-cell suspension was plated onto 96-well plates without Indomethacin. Single clones were recovered, expanded, and validated by both genomic sequencing and RT-PCR analysis.
However, the heterogeneity of different cell lines often adds complexity to data interpretation. […] For the initial screening, we selected a panel of different classes of commonly used chemotherapeutic drugs.

[2] = tested on: HCT116-BP10 (BaxΔ2 positive) versus HCT116-BN28 (BaxΔ2 negative) sublines; assay: Cell death assay of HCT116 sublines treated with chemotherapeutic drugs for 36 hours; format: cell-based, human; conditions: Adriamycin (40 ug/ml) or 5-FU (500 ug/ml), compared with BaxΔ2 negative subline
Experimental: FIG. 8. […] Adr, Adriamycin; Etop, Etoposide; 5-FU, 5-fluorouracil; Contr, control.
BaxΔ2 positive (HCT116-BP10) and negative (HCT116-BN28) sublines were treated with Adriamycin (40 ug/ml) or 5-FU (500 ug/ml) for 36 hours in a regular cell culture medium. […] Both Adriamycin and Etoposide are in the same category as topoisomerase inhibitors; and both 5-FU and Cytoxan are in the same class of alkaloid drugs.

caspase-8 = assay: Immunoblotting for cleaved caspase-8 in chemodrug treated clone #10; format: cell-based, human; conditions: 5-FU (500 μM) or Adriamycin (4 μg/ml) 24 h
Experimental: (§1) FIG. 9. BaxΔ2 promotes apoptosis through activation of caspase-8. A, Cell death assay of HCT116 clone #10 and clone #28 cells treated with or without 5-FU (500 μM) or Adriamycin (Adr, 4 μg/ml) for 24 h in the presence of inhibitors (50 μM each) for caspase-3 (DEVD) SEQ ID NO: 4), caspase-8 (IETD) (SEQ ID NO: 5), caspase-1 (YVAD) (SEQ ID NO: 6), and caspase-9 (LEHD) (SEQ ID NO: 7) as indicated. ** P<0.01. inh., inhibitor. B, Caspase-3 assay of HCT116 clone #10 and #28 cells treated as described in (A). The activity of caspase-3 was measured using fluorogenic caspase-3 substrate DEVD-AFC (SEQ ID NO: 4) (50 μM) with a microplate spectrofluorometer. C, Immunoblotting analysis for the detection of cleaved casapase-8 in the chemodrug treated clone #10 and #28 cells with an anti-cleaved caspase-8 antibody.
(§2) Bax typically targets the mitochondria upon activation and results in the activation of the caspase-9 and caspase-3 cascade for cell death. To determine the underlying mechanism by which BaxΔ2 promoted cell death, HCT116 clones #10 and #28 were treated with Adriamycin or 5-FU in the presence of different caspase inhibitors. […] The caspase-3 activity was confirmed by the caspase-3 fluorometric assay (FIG. 9B). […]

Bid = assay: Immunoblotting analysis of cleaved Bid in clone #10; format: cell-based, human; conditions: BaxΔ2-positive clone #10 cells
Experimental: (§3) FIG. 10. The Bid-dependent mitochondrial death pathway is not essential for the onset of chemodrug-induced apoptosis in BaxΔ2-positive cells. A, Immunoblotting analysis of cleaved Bid in HCT116 clone #10 and #28 cells treated with or without 5-FU (500 μM) or Adriamycin ([…]) as indicated. The intensities of truncated Bid bands were quantitated relevant to the actin control and are presented as arbitrary numbers. B, Cell death assay of HCT116 clone #10 cells treated with 5-FU (500 μM) in the presence of a Bid specific inhibitor (BI-6C9; 10 μM) or Bid siRNA. C, Cell death assay of clone #10 cells treated with 5-FU (500 μM) in the presence of a caspase-9 inhibitor (LEHD (SEQ ID NO: 7); 50 μM) or transfected with a caspase-9 dominant negative (D/N) mutant construct. D, Representative images of JC-1 staining. Carbonyl cyanide 4-(trifluoromethoxy) phenylhydrazone (FCCP; 100 μM) was used as a positive control. JC-1 monomer green fluorescence as observed by excitation with 488 nm and emission with 529 nm (top panel). JC-1 aggregate red fluorescence as observed by excitation at 546 nm and emission at 590 nm (bottom panel).
(§4) Caspase-8 is one of the initiator caspases in the extrinsic death receptor pathway. […] We next determined if the Bid-dependent mitochondrial death pathway was required for BaxΔ2 to promote apoptosis. […]

[3] = tested on: prostate cancer 104-R cells (G7/G7); conditions: previously shown; cited from earlier work
[4] = tested on: colon cancer LoVo cells (G7/G9); conditions: previously shown; cited from earlier work
BaxΔ2 protein [5] = assay: Immunoblotting of BaxΔ2 protein after MG-132 treatment, clone #10; format: cell-based, human; conditions: clone #10 (HCT116-BP10); MG-132 10 μM for 8 h
Experimental: (§5) FIG. 7. Generation and characterization of the isogenic subline cells with the different Bax microsatellite status. A, Schematic diagram of generating the HCT116 sublines. Cells were treated with 500 μM Indomethacin for 72 h. A single cell suspension was plated into 96-well plates without Indomethacin. Bax microsatellite statuses (G8/G8, G8/G7, or G7/G7) of each sublines were determined by genomic sequencing as described in the methods. B, RT-PCR analysis of Bax alternative splicing and BaxΔ2 production. The cDNAs were generated from HCT116 clones #10 (G7/G7 genotype) and clone #28 (G8/G7 genotype) with a set of primers that cover Bax exon 1 through exon 6, or primers specific for BaxΔ2 as described in the methods. The PCR products of Baxα and BaxΔ2 plasmid DNA were used as controls. […] Total 1×10^4 cells were seeded onto 24-well plates and the cell numbers were counted every 24 h up to 96 h. […]
(§6) We then determined the expression of endogenous BaxΔ2 proteins in the HCT116 clones #10 and #28 subline cells using a specific anti-BaxΔ2 antibody. […] Of note, both clone #10 and clone #28 had no detectable parental Baxα proteins, as analyzed by immunoblotting using several anti-Baxα antibodies (FIG. 7C and data not shown).

BaxΔ2 protein [6] = assay: Immunoblotting of BaxΔ2 protein after MG-132 treatment, clone #28; format: cell-based, human; conditions: clone #28 (HCT116-BN28); MG-132 10 μM for 8 h
Experimental: as §5, §6

HCT116 clone #10 [7] = assay: Cell death assay of clone #10 treated with 5-FU with Bid or caspase-9 inhibition; format: cell-based, human; conditions: clone #10 treated with 5-FU (500 μM); BI-6C9 10 μM; LEHD 50 μM
Experimental: as §3, with “(bottom panel). […]” for “(bottom panel).”
as §4

HCT116 clone #10 [8] = assay: Cell death assay with chemodrug in the presence of caspase inhibitors; format: cell-based, human; conditions: clone #10 treated with 5-FU (500 μM) or Adriamycin (4 μg/ml) 24 h; inhibitors 50 μM each
Experimental: as §1, §2

O=c1[nH]cc(F)c(=O)[nH]1 [5-FU, 5-Fluorouracil]
Sensitivity of BaxΔ2-positive clone #10 compared with BaxΔ2-negative clone #28 [1]: highly sensitive; also recorded: selectively sensitive
Sensitivity of BaxΔ2 positive clone #10 cells to treatment (cell death assay) [2]: more sensitive
Caspase-8 activation (cleaved caspase-8 fragments 43 kDa and 18 kDa) (caspase-8): activated
Bid degradation (cleaved Bid) (Bid): partially degraded

COc1cccc2c1C(=O)c1c(O)c3c(c(O)c1C2=O)C[C@@](O)(C(=O)CO)C[C@@H]3O[C@H]1C[C@H](N)[C@H](O)[C@H](C)O1 [Doxorubicin, doxorubicin]
Sensitivity of BaxΔ2-positive clone #10 compared with BaxΔ2-negative clone #28 ([1]; listed as Adriamycin): more sensitive; also recorded: selectively sensitive
Sensitivity of BaxΔ2 positive clone #10 cells to treatment (cell death assay) [2]: more sensitive
Caspase-8 activation (cleaved caspase-8 fragments 43 kDa and 18 kDa) (caspase-8): activated
Bid degradation (cleaved Bid) (Bid): partially degraded
Sensitivity to treatment compared with cancer cells with wild type Bax [3]: more sensitive
Sensitivity to treatment compared with cancer cells with wild type Bax [4]: more sensitive

CC(C)C[C@@H](C=O)NC(=O)[C@H](CC(C)C)NC(=O)[C@H](CC(C)C)NC(=O)OCc1ccccc1 [MG-132] (Cbz-Leu-Leu-Leu-aldehyde)
Detection of BaxΔ2 proteins after treatment (BaxΔ2 protein [5]): easily detected
Detection of BaxΔ2 proteins after treatment (BaxΔ2 protein [6]): no detectable BaxΔ2 proteins

Bid siRNA: Bid siRNA (5′GGGCAAAAGC UUACAAAUAUU3′) (SEQ ID NO: 47) (GGGCAAAAGCUUACAAAUAUU; listed as RNA, chemistry not given here)
Effect on chemodrug-induced apoptosis (HCT116 clone #10 [7]): did not significantly affect

Z-DEVD-FMK (N-Z, C-terminal fluoromethylketone) [caspase-3 inhibitor]
Inhibition of chemodrug-induced apoptosis (HCT116 clone #10 [8]): effectively inhibited

Z-IETD-FMK (N-Z, C-terminal fluoromethylketone) [caspase-8 inhibitor]
Inhibition of chemodrug-induced apoptosis (HCT116 clone #10 [8]): effectively inhibited

Reference: patent US9504687B2, “Treating Bax(Δ)2-positive cancer with chemotherapies targeting caspase 8” (Mumetel, LLC, priority 2013, dated 2016)
